According to patent US20220017512A1 (SHANGHAI ENNOVABIO PHARMACEUTICALS CO., LTD., priority 2018, published 2022):

Legend:
[1] = Pharmacokinetics experiment in mice; assay type: in vivo, ICR mice; conditions: mouse, 5 mg/kg; for Cmax / half-life / AUC(0-t): ICR, plasma, po; for AUC(0-t) / F: p.o.; for AUC(0-t): read-out: AUC0-24 hr
Protocol: Biological Test Example 6: Pharmacokinetics Experiment of Small Molecular Inhibitors of the Present Invention in Mice
Tested compounds were administered to ICR mice via intravenous administration (IV) and para-oral (PO) administration, and blood samples were taken at different time points. The concentration of the tested article in mouse plasma was measured by LC-MS/MS, and relevant parameters were calculated. Specifically, a desired amount of a compound to be tested was taken and formulated in 5% DMSO+10% Solutol+85% injection water to form a solution at desired concentration for intravenous administration or para-oral administration. Animals were about 6-8 weeks old when the administration experiment started. Blood collection time for intravenous administration: 0.083 h, 0.25 h, 0.5 h, 1 h, 2 h, 4 h, 8 h, and 24 h after administration. Blood collection time for oral administration: 0.25 h, 0.5 h, 1 h, 2 h, 4 h, 6 h, 8 h and 24 h after administration. The biological sample analysis method and sample detection method were established. The pharmacokinetic parameters were calculated using Phoenix Winnonlin 7.0 software according to plasma concentration data at different time points, such as AUC(0-t), AUC(0-∞), T½, Cmax, Tmax, and MRT.

[2] = target: T1, Recombinant human TRKC (Homo sapiens, UniProt Q16288); experiment: In vitro activity test on TRKC kinase (HTRF KinEASE TK); assay type: biochemical; conditions: 25.64 μM ATP, 40 min
T1 construct: purchased Carna Biosciences
Summary of the method: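 Recombinant human TRKC (0.037 ng/μL) with 1 μM biotinylated TK substrate, 25.64 μM ATP, 5 mM MgCl2, 1 mM DTT, 40 min at room temperature; compound 1 μM to 0.05 nM, 1% DMSO. HTRF 665/620 ratio after overnight detection; IC50 from 4-parameter fit.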

[3] = target: T2, Recombinant human TRKB (Homo sapiens, UniProt Q16620); experiment: In vitro activity test on TRKB kinase (HTRF KinEASE TK); assay type: biochemical; conditions: 4.77 μM ATP, 50 min
T2 construct: purchased Carna Biosciences
Summary of the method: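 Recombinant human TRKB (0.037 ng/μL) phosphorylated 1 μM biotinylated TK substrate at 4.77 μM ATP, 5 mM MgCl2, 1% DMSO, 50 min at room temperature; compounds 1 μM–0.05 nM. HTRF KinEASE detection overnight; 665/620 ratio converted to inhibition and IC50 from 4-parameter fit.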

[4] = target: T3, recombinant human TRKA (G595R) (Homo sapiens, UniProt P04629, G595R); experiment: In vitro activity test on mutant TRKA (G595R) (HTRF KinEASE TK); assay type: biochemical; conditions: 4.5 μM ATP, 30 min
T3 construct: purchased SignalChem
Summary of the method: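 HTRF KinEASE TK format: 0.12 ng/μL recombinant TRKA (G595R), 1 μM biotinylated TK substrate, 4.5 μM ATP, 5 mM MgCl2, 1 mM DTT, 1% DMSO, 30 min at room temperature; detection overnight. IC50 from 10-point 4-fold series (1 μM to 0.004 nM, duplicates), 665/620 ratio, 4-parameter fit.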

[5] = target: T4, Recombinant human TRKA (Homo sapiens, UniProt P04629); experiment: In vitro activity test on TRKA kinase (HTRF KinEASE TK); assay type: biochemical; conditions: 14.68 μM ATP, 40 min
T4 construct: purchased Carna Biosciences
Summary of the method: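 Reaction: 0.2 ng/μL TRKA, 1 μM biotinylated TK substrate, 14.68 μM ATP, 5 mM MgCl2, 1 mM DTT, 1% DMSO, 40 min at room temperature. Compounds tested at 1 μM to 0.05 nM (10-point, 3-fold, duplicate). HTRF 665/620 ratio converted to % inhibition versus no-compound control; IC50 by 4-parameter fit.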

[6] = target: T5, recombinant human TRKA (G667C) (Homo sapiens, UniProt P04629, G667C); experiment: In vitro activity test on mutant TRKA (G667C) (HTRF KinEASE TK); assay type: biochemical; conditions: 5.5 μM ATP, 30 min
T5 construct: purchased SignalChem
Summary of the method: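 HTRF KinEASE TK format with recombinant human TRKA G667C (0.026 ng/μL), 1 μM biotinylated TK substrate, 5.5 […] ATP, 5 mM MgCl2, 1 mM DTT, 1% DMSO; 30 min at room temperature. Detection overnight; 665/620 ratio gives % inhibition, IC50 from 4-parameter fit over 10 doses (1 μM–0.004 nM).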

T1 sequence (Q16288 32-839): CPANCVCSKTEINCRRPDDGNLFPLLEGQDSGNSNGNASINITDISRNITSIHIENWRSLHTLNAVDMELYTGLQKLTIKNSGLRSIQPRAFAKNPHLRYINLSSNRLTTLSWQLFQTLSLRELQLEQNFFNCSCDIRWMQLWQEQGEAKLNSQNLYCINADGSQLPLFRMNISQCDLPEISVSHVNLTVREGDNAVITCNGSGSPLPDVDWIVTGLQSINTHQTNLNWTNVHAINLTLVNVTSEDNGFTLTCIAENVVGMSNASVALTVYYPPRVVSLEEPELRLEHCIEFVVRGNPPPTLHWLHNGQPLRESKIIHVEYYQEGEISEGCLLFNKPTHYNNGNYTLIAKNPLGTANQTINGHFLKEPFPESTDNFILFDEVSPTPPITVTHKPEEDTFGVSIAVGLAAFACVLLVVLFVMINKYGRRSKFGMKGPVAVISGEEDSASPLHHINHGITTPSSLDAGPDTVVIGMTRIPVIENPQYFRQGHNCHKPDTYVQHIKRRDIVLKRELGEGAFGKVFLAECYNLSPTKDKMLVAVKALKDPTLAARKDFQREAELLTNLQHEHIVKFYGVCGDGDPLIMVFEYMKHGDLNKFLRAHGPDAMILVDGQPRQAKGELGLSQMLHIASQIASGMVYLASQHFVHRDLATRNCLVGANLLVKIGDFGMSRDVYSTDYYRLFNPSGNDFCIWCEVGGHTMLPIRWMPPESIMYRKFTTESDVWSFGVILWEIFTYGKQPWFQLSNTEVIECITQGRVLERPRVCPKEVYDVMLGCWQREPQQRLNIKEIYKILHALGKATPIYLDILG
T3 sequence (P04629 33-796 G595R): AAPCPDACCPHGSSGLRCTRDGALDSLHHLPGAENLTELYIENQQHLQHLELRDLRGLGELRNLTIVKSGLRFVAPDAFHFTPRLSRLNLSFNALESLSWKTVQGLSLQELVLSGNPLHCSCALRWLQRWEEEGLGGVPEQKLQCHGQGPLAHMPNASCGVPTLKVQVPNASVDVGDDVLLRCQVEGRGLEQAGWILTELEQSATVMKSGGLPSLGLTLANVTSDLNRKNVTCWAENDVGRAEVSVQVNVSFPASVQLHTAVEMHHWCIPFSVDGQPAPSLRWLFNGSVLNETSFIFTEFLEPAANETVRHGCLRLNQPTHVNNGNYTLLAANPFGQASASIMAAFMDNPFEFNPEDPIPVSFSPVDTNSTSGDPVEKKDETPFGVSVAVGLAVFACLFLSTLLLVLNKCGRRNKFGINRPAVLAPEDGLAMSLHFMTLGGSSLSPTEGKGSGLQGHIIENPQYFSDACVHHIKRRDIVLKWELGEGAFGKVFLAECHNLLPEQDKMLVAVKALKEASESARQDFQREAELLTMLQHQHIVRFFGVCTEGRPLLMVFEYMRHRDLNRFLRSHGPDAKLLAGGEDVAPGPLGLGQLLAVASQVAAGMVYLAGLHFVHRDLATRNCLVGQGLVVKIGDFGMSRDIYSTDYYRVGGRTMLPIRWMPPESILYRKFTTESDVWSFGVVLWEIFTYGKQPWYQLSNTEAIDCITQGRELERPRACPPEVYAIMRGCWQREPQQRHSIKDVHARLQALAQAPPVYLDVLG
T4 sequence (P04629 33-796): as the sequence (P04629 33-796 G595R) above, with R563G counted along it
T5 sequence (P04629 33-796 G667C): as the sequence (P04629 33-796 G595R) above, with R563G, G635C counted along it
T2 sequence (Q16620 32-822): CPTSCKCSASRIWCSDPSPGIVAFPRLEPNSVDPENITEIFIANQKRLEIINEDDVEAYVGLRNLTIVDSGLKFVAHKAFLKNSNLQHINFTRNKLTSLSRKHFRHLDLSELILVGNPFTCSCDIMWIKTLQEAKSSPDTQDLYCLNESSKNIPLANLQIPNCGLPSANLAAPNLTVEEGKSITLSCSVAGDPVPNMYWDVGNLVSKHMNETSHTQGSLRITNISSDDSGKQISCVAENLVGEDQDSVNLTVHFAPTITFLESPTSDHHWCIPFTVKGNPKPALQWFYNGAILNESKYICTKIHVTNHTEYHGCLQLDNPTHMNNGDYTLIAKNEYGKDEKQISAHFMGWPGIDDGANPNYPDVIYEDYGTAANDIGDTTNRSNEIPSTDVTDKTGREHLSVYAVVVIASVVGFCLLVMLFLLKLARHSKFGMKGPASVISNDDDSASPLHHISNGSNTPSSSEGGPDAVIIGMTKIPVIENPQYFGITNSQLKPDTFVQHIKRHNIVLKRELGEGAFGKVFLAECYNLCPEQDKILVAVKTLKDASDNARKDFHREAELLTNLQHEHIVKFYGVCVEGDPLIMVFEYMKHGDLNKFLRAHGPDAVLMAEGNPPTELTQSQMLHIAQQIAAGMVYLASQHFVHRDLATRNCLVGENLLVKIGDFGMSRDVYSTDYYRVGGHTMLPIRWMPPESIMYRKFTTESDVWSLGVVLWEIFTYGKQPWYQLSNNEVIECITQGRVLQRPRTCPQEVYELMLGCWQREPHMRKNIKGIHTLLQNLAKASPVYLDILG

Cmax [1] [ng/mL] | half-life [1] [h] | AUC(0-t) [1] [ng·h/mL] | F [1] [%] | IC50 [2] [nM] | IC50 [3] [nM] | IC50 [4] [nM] | IC50 [5] [nM] | IC50 [6] [nM] | SMILES
714 | 2.34 | 3230 | 107 | < 1 | < 1 | < 10 | < 1 | < 1 | Fc1ccc(F)c([C@H]2C[C@H](F)CN2c2ccc3ncc(Cl)c(-c4cnn(C5CCNCC5)c4)c3n2)c1 [Example 16, 7-chloro-2-((2R,4S)-2-(2,5-difluorophenyl)-4-fluoropyrrolidin-1-yl)-8-(1-(piperidin-4-yl)-1H-pyrazol-4-yl)-1,5-naphthyridine]
448 | 2.82 | 2700 | 144 | < 1 | < 1 | < 1 | < 1 | < 1 | Fc1ccc(F)c([C@H]2C[C@H](F)CN2c2ccc3ncc(F)c(-c4cnn(C5CCNCC5)c4)c3n2)c1 [Example 20]
 |  |  |  | < 1 | < 1 | < 10 | < 1 | < 10 | O[C@H]1CCN(c2cnn(-c3ncnc4ccc(N5C[C@@H](F)C[C@@H]5c5cc(F)ccc5F)nc34)c2)C1 [Example 70, (S)-1-(1-(6-((2R,4S)-2-(2,5-difluorophenyl)-4-fluoropyrrolidin-1-yl)pyrido[3,2-d]pyrimidin-4-yl)-1H-pyrazol-4-yl)pyrrolidin-3-ol]
 |  |  |  | < 1 | < 1 | < 1 | < 1 | < 10 | O[C@H]1CCN(c2ncc(-c3ncnc4ccc(N5C[C@@H](F)C[C@@H]5c5cc(F)ccc5F)nc34)cn2)C1 [Example 72, (S)-1-(5-(6-((2R,4S)-2-(2,5-difluorophenyl)-4-fluoropyrrolidin-1-yl)pyrido[3,2-d]primidin-4-yl)pyrimidin-2-yl)pyrrolidin-3-ol]
 |  |  |  | < 1 | < 1 | < 1 | < 1 | < 10 | Fc1ccc(F)c([C@H]2C[C@H](F)CN2c2ccc3ncnc(-n4cc(C5CCNCC5)cn4)c3n2)c1 [Example 78, 6-((2R,4S)-2-(2,5-difluorophenyl)-4-fluoropyrrolidin-1-yl)-4-(4-(piperidin-4-yl)-1H-pyrazol-1-yl)pyrido[3,2-d]pyrimidine]
 |  |  |  | < 10 | < 1 | < 1 | < 1 | < 1 | O[C@H]1CN=C(Nc2ccnc3ccc(N4C[C@@H](F)C[C@@H]4c4cc(F)ccc4F)nc23)OC1 [Example 99, (S)-2-((6-((2R,4S)-2-(2,5-difluorophenyl)-4-fluoropyrrolidin-1-yl)-1,5-naphthyridin-4-yl)amino)-5,6-dihydro-4H-1,3-oxazin-5-ol]

More lines, now with the values behind:

SMILES | Cmax [1] [ng/mL] | half-life [1] [h] | AUC(0-t) [1] [ng·h/mL] | F [1] [%] | IC50 [2] [nM] | IC50 [3] [nM] | IC50 [4] [nM] | IC50 [5] [nM] | IC50 [6] [nM]
Fc1ccc(F)c([C@H]2C[C@H](F)CN2c2ccc3ncc(Cl)c(-c4cn(C5CCNCC5)nn4)c3n2)c1 [Example 67, 7-chloro-2-((2R,4S)-2-(2,5-difluorophenyl)-4-fluoropyrrolidin-1-yl)-8-(1-(piperidin-4-yl)-2H-1,2,3-triazol-4-yl)-1,5-naphthyridine] |  |  |  |  | < 1 | < 1 | < 10 | < 1 | < 10
O=S(=O)(Nc1ccnc2ccc(N3C[C@@H](F)C[C@@H]3c3cc(F)ccc3F)nc12)N1CC[C@H](O)C1 [Example 69, (S)—N-(6-((2R,4S)-2-(2,5-difluorophenyl)-4-fluoropyrrolidin-1-yl)-1,5-naphthyridin-4-yl)-3-hydroxypyrrolidin-1-sulfonamide] |  |  |  |  | < 1 | < 1 | < 1 | < 1 | < 10
O[C@H]1CCN(c2ncnc3ccc(N4C[C@@H](F)C[C@@H]4c4cc(F)ccc4F)nc23)C1 [Example 71, (S)-1-(6-((2R,4S)-2-(2,5-difluorophenyl)-4-fluoropyrrolidin-1-yl)pyrido[3,2-d]pyrimidine-4-yl)pyrrolidin-3-ol] |  |  |  |  | < 1 | < 1 | < 1 | < 1 | < 10
Fc1ccc(F)c([C@H]2C[C@H](F)CN2c2ccc3ncc(F)c(-c4noc(C5CCNCC5)n4)c3n2)c1 [Example 73, 3-(6-((2R,4S)-2-(2,5-difluorophenyl)-4-fluoropyrrolidin-1-yl)-3-fluoro-1,5-naphthyridin-4-yl)-5-(piperidin-4-yl)-1,2,4-oxadiazole] |  |  |  |  | < 10 | < 10 | < 10 | < 1 | < 10
NC(=O)CN1CCC(n2cc(-c3c(F)cnc4ccc(N5C[C@@H](F)C[C@@H]5c5cc(F)ccc5F)nc34)cn2)CC1 [Example 74, 2-(4-(4-(6-((2R,4S)-2-(2,5-difluorophenyl)-4-fluoropyrrolidin-1-yl)-3-fluoro-1,5-naphthyridin-4-yl)-1H-pyrazol-1-yl)piperidin-1-yl)acetamide] |  |  |  |  | < 1 | < 1 | < 10 | < 1 | < 10
O[C@H]1CCN(c2ccc(-c3ncnc4ccc(N5C[C@@H](F)C[C@@H]5c5cc(F)ccc5F)nc34)cn2)C1 [Example 75, (S)-1-(5-(6-((2R,4S)-2-(2,5-difluorophenyl)-4-fluoropyrrolidin-1-yl)pyrido[3,2-d]pyrimidin-4-yl)pyridin-2-yl)pyrrolidin-3-ol] |  |  |  |  | < 1 | < 1 | < 1 | < 1 | < 10
O[C@H]1CCN(c2nc(-c3c(F)cnc4ccc(N5C[C@@H](F)C[C@@H]5c5cc(F)ccc5F)nc34)no2)C1 [Example 77, (S)-1-(3-(6-((2R,4S)-2-(2,5-difluorophenyl)-4-fluoropyrrolidin-1-yl)-3-fluoro-1,5-naphthyridin-4-yl)-1,2,4-oxadiazol-5-yl)pyrrolidin-3-ol] |  |  |  |  | < 10 | < 10 | < 1 | < 1 | < 50
O[C@H]1CCN(C(=S)Nc2ccnc3ccc(N4C[C@@H](F)C[C@@H]4c4cc(F)ccc4F)nc23)C1 [Example 79, (S)-N-(6-((2R,4S)-2-(2,5-difluorophenyl)-4-fluoropyrrolidin-1-yl)-1,5-naphthyridin-4-yl)-3-hydroxypyrrolidine-1-methylthioamide] |  |  |  |  | < 1 | < 1 | < 1 | < 1 | < 10
O[C@@H]1CN=C(Nc2ccnc3ccc(N4C[C@@H](F)C[C@@H]4c4cc(F)ccc4F)nc23)OC1 [Example 98, (R)-2-((6-((2R,4S)-2-(2,5-difluorophenyl)-4-fluoropyrrolidin-1-yl)-1,5-naphthyridin-4-yl)amino)-5,6-dihydro-4H-1,3-oxazin-5-ol] |  |  |  |  | < 1 | < 1 | < 1 | < 1 | < 1
